# Measured values taken from patent US11612604B2, “Methods of treating cancer with PLK4 inhibitors” (LUDWIG INSTITUTE FOR CANCER RESEARCH LTD, priority 2017, dated 2023).
# Biological target: T1, PLK4 (Homo sapiens, UniProt O00444)
# T1 sequence (O00444 1-970): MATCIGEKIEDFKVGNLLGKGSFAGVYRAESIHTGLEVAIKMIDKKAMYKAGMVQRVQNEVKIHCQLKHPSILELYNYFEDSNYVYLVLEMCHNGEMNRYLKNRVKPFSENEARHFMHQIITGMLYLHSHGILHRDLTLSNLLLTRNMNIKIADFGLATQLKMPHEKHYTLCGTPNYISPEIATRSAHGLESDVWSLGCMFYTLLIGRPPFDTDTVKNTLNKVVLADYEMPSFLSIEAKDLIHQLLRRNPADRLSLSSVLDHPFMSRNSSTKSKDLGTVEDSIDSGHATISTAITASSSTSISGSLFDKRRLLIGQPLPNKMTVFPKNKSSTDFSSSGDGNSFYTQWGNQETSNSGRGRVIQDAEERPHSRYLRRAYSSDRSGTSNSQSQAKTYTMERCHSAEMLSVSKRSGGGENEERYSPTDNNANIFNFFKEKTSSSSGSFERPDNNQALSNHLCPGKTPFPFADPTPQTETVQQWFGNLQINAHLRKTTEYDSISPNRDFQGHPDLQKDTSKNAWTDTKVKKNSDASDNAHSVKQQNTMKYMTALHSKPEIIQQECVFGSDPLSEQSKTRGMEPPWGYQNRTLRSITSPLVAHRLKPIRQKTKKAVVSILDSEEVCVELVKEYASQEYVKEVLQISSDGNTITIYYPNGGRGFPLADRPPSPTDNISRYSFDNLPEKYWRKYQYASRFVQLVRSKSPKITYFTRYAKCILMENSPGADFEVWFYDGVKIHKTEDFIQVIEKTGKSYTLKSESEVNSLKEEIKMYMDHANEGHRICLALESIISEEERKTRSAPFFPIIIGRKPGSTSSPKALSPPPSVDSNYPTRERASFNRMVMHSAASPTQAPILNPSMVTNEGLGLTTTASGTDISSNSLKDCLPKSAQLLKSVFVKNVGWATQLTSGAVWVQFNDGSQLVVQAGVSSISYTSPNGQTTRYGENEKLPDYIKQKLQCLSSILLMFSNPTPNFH
# Assay: Activity (IC50) of the Table 1 compounds as PLK4 inhibitors
# Assay type: biochemical
# Settings: Table 1, IC50 class
row,IC50 [µM],Structure (SMILES)
1,< 0.1,COCCNc1nc(Sc2ccc(NC(=O)C3CCCC3)cc2)nc(Nc2cc(C)[nH]n2)c1OC
2,< 0.1,COc1c(Nc2cc(C)[nH]n2)nc(Sc2ccc(NC(=O)C3CCCC3)cc2)nc1N1CCN(C(C)=O)CC1
3,< 0.1,COCCN1CCN(c2nc(Sc3ccc(NC(=O)C4CCCC4)cc3)nc(Nc3cc(C)[nH]n3)c2OC)CC1
4,< 0.1,COc1c(Nc2cc(C)[nH]n2)nc(Sc2ccc(NC(=O)C3CCCC3)cc2)nc1N1CCN(C)CC1
5,< 0.1,COc1c(Nc2cc(C)[nH]n2)nc(Sc2ccc(NC(=O)C3CCCC3)cc2)nc1N1CCN(CCN(C)C)CC1
6,< 0.1,CCOc1c(Nc2cc(C)[nH]n2)nc(Sc2ccc(NC(=O)C3CC3)cc2)nc1N(C)CC
7,< 0.1,COc1c(Nc2cc(C)[nH]n2)nc(Sc2ccc(NC(=O)C3CC3)cc2)nc1N1CCN(C(=O)CCN(C)C)CC1
8,< 0.1,CCS(=O)(=O)c1ccc(Sc2nc(Nc3cc(C)[nH]n3)c(OC)c(C3CCN(CCN(C)C)CC3)n2)cc1
9,< 0.1,COc1c(Nc2cc(C)[nH]n2)nc(Sc2ccc(S(=O)(=O)Cc3ccccc3)cc2)nc1C1CCN(CCN(C)C)CC1
10,< 0.1,COc1c(Nc2cc(C)[nH]n2)nc(Sc2ccc(S(=O)(=O)Cc3ncc[nH]3)cc2)nc1N1CCN(CCN(C)C)CC1
11,< 0.1,CCS(=O)(=O)c1ccc(Sc2nc(C)c(OC)c(Nc3cc(C)[nH]n3)n2)cc1
12,< 0.1,COc1c(C)nc(Sc2ccc(S(=O)(=O)Cc3ccccc3)cc2)nc1Nc1cc(C)[nH]n1
13,< 0.1,COc1c(Nc2cc(C)[nH]n2)nc(Sc2ccc(S(=O)(=O)c3ccccc3)cc2)nc1N1CCN(CCN(C)C)CC1
14,< 0.1,COc1c(Nc2cc(C)[nH]n2)nc(Sc2ccc(S(=O)(=O)Cc3ncco3)cc2)nc1N1CCN(CCN(C)C)CC1
15,< 0.1,COc1c(Nc2cc(C)[nH]n2)nc(Sc2ccc(S(=O)(=O)Cc3ccccc3)cc2)nc1N(C)C
16,< 0.1,CCS(=O)(=O)c1ccc(Sc2nc(Nc3cc(C)[nH]n3)c(OC)c(N3CCOCC3)n2)cc1
17,< 0.1,Cc1cc(Nc2nc(Sc3ccc(S(=O)(=O)Cc4ccccc4)cc3)nc(N3CCN(CCN(C)C)CC3)c2OC(C)C)n[nH]1

# Further lines, the compound ahead of its results:
row,Structure (SMILES),IC50 [µM]
1,CCOc1c(Nc2cc(C)[nH]n2)nc(Sc2ccc(NC(=O)C3CC3)cc2)nc1N1CCOCC1,< 0.1
2,COc1c(Nc2cc(C)[nH]n2)nc(Sc2ccc(NC(=O)C3CCCC3)cc2)nc1N1CCNCC1,< 0.1
3,CCOc1c(Nc2cc(C)[nH]n2)nc(Sc2ccc(NC(=O)C3CC3)cc2)nc1N1CCNCC1,< 0.1
4,CCOc1c(Nc2cc(C)[nH]n2)nc(Sc2ccc(NC(=O)C3CC3)cc2)nc1N(CC)CC,< 0.1
5,CCOc1c(Nc2cc(C)[nH]n2)nc(Sc2ccc(NC(=O)C3CC3)cc2)nc1N(C)C,< 0.1
6,COc1c(Nc2cc(C)[nH]n2)nc(Sc2ccc(NC(=O)C3CC3)cc2)nc1N1CCN(C2CCN(C)CC2)CC1,< 0.1
7,COc1c(Nc2cc(C)[nH]n2)nc(Sc2ccc(NC(=O)C3CC3)cc2)nc1N1CCC(C(=O)CN(C)C)CC1,< 0.1
8,COCC(=O)N1CCN(c2nc(Sc3ccc(NC(=O)C4CC4)cc3)nc(Nc3cc(C)[nH]n3)c2OC)CC1,< 0.1
9,CCS(=O)(=O)c1ccc(Sc2nc(Nc3cc(C)[nH]n3)c(OC)c(N3CCC(CCN4C5CCCC4CCC5)CC3)n2)cc1,< 0.1
10,COc1c(Nc2cc(C)[nH]n2)nc(Sc2ccc(S(=O)(=O)CCN(C)C)cc2)nc1N1CCN(CCN(C)C)CC1,< 0.1
11,CCOc1c(Nc2cc(C)[nH]n2)nc(Sc2ccc(S(=O)(=O)CC)cc2)nc1N1CCN(CCN(C)C)CC1,< 0.1
12,CCOc1c(Nc2cc(C)[nH]n2)nc(Sc2ccc(S(=O)(=O)Cc3ccccc3)cc2)nc1N1CCN(CCN(C)C)CC1,< 0.1
13,COc1c(Nc2cc(C)[nH]n2)nc(Sc2ccc(S(=O)(=O)Cc3ccccc3)cc2)nc1N1CCOCC1,< 0.1
14,COc1c(Nc2cc(C)[nH]n2)nc(Sc2ccc(S(=O)(=O)Cc3ccccc3)cc2)nc1N1CCCCC1,< 0.1
15,COc1c(Nc2cc(C)[nH]n2)nc(Sc2ccc(S(=O)(=O)Cc3ccccc3)cc2)nc1N1CCN(CCN2CCN(C)CC2)CC1,< 0.1
16,COc1c(Nc2cc(C)[nH]n2)nc(Sc2ccc(S(=O)(=O)Cc3ccccc3)cc2)nc1N1CCN(CCN2C3CCCC2CC3)CC1,< 0.1
17,Cc1cc(Nc2nc(Sc3ccc(S(=O)(=O)Cc4ccccc4)cc3)nc(N3CCN(CCN(C)C)CC3)c2C)n[nH]1,< 0.1
18,Cc1cc(Nc2cc(N3CCN(CCN(C)C)CC3)nc(Sc3ccc(S(=O)(=O)Cc4ccccc4)cc3)n2)n[nH]1,< 0.1
19,COc1c(Nc2cc[nH]n2)nc(Sc2ccc(S(=O)(=O)Cc3ccccc3)cc2)nc1N1CCN(CCN(C)C)CC1,< 0.1
20,CCS(=O)(=O)c1ccc(Sc2nc(Nc3cc(C)[nH]n3)c(OC)c(N3CCCCC3)n2)cc1,< 0.1

row,Structure (SMILES),IC50 [µM]
1,COc1c(Nc2cc(C)[nH]n2)nc(Sc2ccc(S(=O)(=O)Cc3cccc([N+](=O)[O-])c3)cc2)nc1N1CCN(CCN(C)C)CC1,< 0.1
2,COc1c(Nc2cc(C)[nH]n2)nc(Sc2ccc(S(=O)(=O)Cc3ccc([N+](=O)[O-])cc3)cc2)nc1N1CCN(CCN(C)C)CC1,< 0.1
3,CCN(CC)c1nc(Sc2ccc(S(=O)(=O)Cc3ccccc3)cc2)nc(Nc2cc(C)[nH]n2)c1OC,< 0.1
4,CCN(CC)c1nc(Sc2ccc(S(=O)(=O)CC)cc2)nc(Nc2cc(C)[nH]n2)c1OC,< 0.1
5,CCOc1c(Nc2cc(C)[nH]n2)nc(Sc2ccc(S(=O)(=O)Cc3ccccc3)cc2)nc1N1CCNCC1,< 0.1
6,CCOc1c(Nc2cc(C)[nH]n2)nc(Sc2ccc(S(=O)(=O)CC)cc2)nc1N1CCNCC1,< 0.1
7,COc1c(Nc2cc(C)[nH]n2)nc(Sc2ccc(S(=O)(=O)Cc3ccc(F)cc3F)cc2)nc1N1CCN(CCN(C)C)CC1,< 0.1
8,COc1c(Nc2cc(C)[nH]n2)nc(Sc2ccc(S(=O)(=O)Cc3ccccc3F)cc2)nc1N1CCN(CCN(C)C)CC1,< 0.1
9,COc1c(Nc2cc(C)[nH]n2)nc(Sc2ccc(S(=O)(=O)Cc3ccccc3)cc2)nc1N1CCN(CCN(C)c2ccccc2)CC1,< 0.1
10,CCCOc1c(Nc2cc(C)[nH]n2)nc(Sc2ccc(S(=O)(=O)Cc3ccccc3)cc2)nc1N1CCN(CCN(C)C)CC1,< 0.1
11,COc1c(Nc2cc(C)[nH]n2)nc(Sc2ccc(S(=O)(=O)Cc3cccc(O)c3)cc2)nc1N1CCN(CCN(C)C)CC1,< 0.1
12,COc1c(Nc2cc(C)[nH]n2)nc(Sc2ccc(S(=O)(=O)Cc3cccc(OCc4ccccc4)c3)cc2)nc1N1CCN(CCN(C)C)CC1,< 0.1
13,CCOc1c(Nc2cc(C)[nH]n2)nc(Sc2ccc(S(=O)(=O)Cc3ccccc3)cc2)nc1N1CCN(CCN2C3CCCC2CC3)CC1,< 0.1
14,CCOc1c(Nc2cc(C)[nH]n2)nc(Sc2ccc(S(=O)(=O)CC)cc2)nc1N1CCC(CCN(C)C)CC1,< 0.1
15,COc1c(Nc2cc(C)[nH]n2)nc(Sc2ccc(S(=O)(=O)Cc3cc(F)ccc3F)cc2)nc1N1CCN(CCN(C)C)CC1,< 0.1
16,COc1c(Nc2cc(C)[nH]n2)nc(Sc2ccc(S(=O)(=O)Cc3cccc(-c4ccccc4)c3)cc2)nc1N1CCN(CCN(C)C)CC1,< 0.1
17,COc1c(Nc2cc(C)[nH]n2)nc(Sc2ccc(S(=O)(=O)Cc3cccc(C(C)=O)c3)cc2)nc1N1CCN(CCN(C)C)CC1,< 0.1
18,COc1c(Nc2cc(C)[nH]n2)nc(Sc2ccc(S(=O)(=O)Cc3cccc([N+](=O)[O-])c3)cc2)nc1N1CCOCC1,< 0.1
19,COc1c(Nc2cc(C)[nH]n2)nc(Sc2ccc(S(=O)(=O)Cc3ccccc3)cc2)nc1N1CCN(Cc2ccccc2)CC1,< 0.1
20,COc1c(Nc2cc(C)[nH]n2)nc(Sc2ccc(S(=O)(=O)Cc3ccccc3)cc2F)nc1N1CCN(CCN(C)C)CC1,< 0.1
